Source: patent EP4608400B1, “COMPOUND FOR TREATMENT OF PAIN” (Initiator Pharma A/S, priority 2022, dated 2024)

Tests used:
[1] = target: T1, 5-hydroxytryptamine transporter (5-HTT or SERT) (Homo sapiens, UniProt P31645); test: Inhibition of human transporter in stable epithelial cell lines (5-HTT); format: cell-based; conditions: average of two replicates (n=2)
T1 construct: expressed in transfected cells
Experimental: (§1) Compounds were tested for their ability to inhibit the reuptake of the monoamine neurotransmitters dopamine (DA), noradrenaline (NA), and serotonin (5-HT) in synaptosomes as described in WO 97/16451 (NeuroSearch A/S). In addition, the compounds were tested in human epithelial cells expressing human transporters for 5-HT (SERT), dopamine (DAT), and norepinephrine (NET).
(§2) The results are the average of two-replicates per experiment (n=2).

[2] = target: T2, dopamine transporter (DAT) (Homo sapiens, UniProt Q01959); test: Inhibition of human transporter in stable epithelial cell lines (DAT); format: cell-based; conditions: average of two replicates (n=2)
T2 construct: expressed in transfected cells
T2 sequence (Q01959 whole entry): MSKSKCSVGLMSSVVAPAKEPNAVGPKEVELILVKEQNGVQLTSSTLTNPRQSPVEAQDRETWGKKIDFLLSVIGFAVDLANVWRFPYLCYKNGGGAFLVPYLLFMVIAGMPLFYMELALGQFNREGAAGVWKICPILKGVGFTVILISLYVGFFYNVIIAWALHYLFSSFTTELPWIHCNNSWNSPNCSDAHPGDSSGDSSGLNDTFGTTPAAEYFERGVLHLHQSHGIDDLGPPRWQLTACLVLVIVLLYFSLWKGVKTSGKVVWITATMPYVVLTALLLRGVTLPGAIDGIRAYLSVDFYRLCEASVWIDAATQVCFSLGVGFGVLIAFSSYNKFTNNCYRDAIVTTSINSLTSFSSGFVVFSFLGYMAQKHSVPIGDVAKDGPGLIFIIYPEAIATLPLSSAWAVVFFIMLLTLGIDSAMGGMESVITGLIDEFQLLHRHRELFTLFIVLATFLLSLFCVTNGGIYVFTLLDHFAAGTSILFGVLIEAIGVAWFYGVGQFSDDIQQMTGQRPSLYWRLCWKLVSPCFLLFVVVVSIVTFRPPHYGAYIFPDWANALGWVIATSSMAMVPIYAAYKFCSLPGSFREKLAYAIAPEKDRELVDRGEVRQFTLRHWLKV
Experimental: as §1, §2

[3] = test system: intradermal capsaicin model; test: Phase I crossover study, intradermal capsaicin model: pharmacodynamics; format: in vivo, human; conditions: for Pain Score of Brush-evoked Allodynia Using an NRS, Adjusted Mean (MMRM) / Subjective Rating of Pain, Adjusted Mean (MMRM): overall, all timepoints, N=24; for Pain Score of Brush-evoked Allodynia Using an NRS, Adjusted Mean (MMRM): placebo 2.0; for Subjective Rating of Pain, Adjusted Mean (MMRM): placebo 17.1
Text: Participants. The volunteers were males aged 18 to 55 years with a body mass index (BMI) of 18 to 30 kg/m2. They were healthy as determined by a responsible physician, based on a medical evaluation including medical history, physical examination, concomitant medication, vital signs, 12-lead ECG, and clinical laboratory evaluations. The participants must have been in good general health with a skin type compatible with the measures and without significant skin allergies, pigmentary disorders or any active dermatological conditions. […] The participants provided written informed consent, which included compliance with the requirements and restrictions listed in the consent form, including the use of a condom during the trial and for 3 months after their final dose of trial medication, if their partner was a woman of childbearing potential.
Clinical and laboratory data. Prior to and 15, 30, 60, 90 and 120 minutes after administration of capsaicin, measurements of pain, hyperalgesia, allodynia and AF were performed. At 2 hours post-capsaicin injection, subjects completed a quantitative sensory testing (QST) battery at two sites on the volar surface of each forearm. One site was the most recent capsaicin injection site, and the other was at an equivalent point on the opposite forearm. […] There was a minimum washout period of 5 days between treatment periods.
Reconstitution was performed by a Pharmacist at the clinical site prior to dosing.
In order to maintain the blind, a double dummy approach was used.
Subjects were randomised to receive a single administration of a treatment combination during each treatment period. All subjects received each treatment combination once only.
Evaluation methods: Pharmacodynamics was assessed through pain measurements (response to ID injection of capsaicin, measurement of pain using a visual analogue scale, area and pain score of hyperalgesia, area and pain score of allodynia, and AF) and the ID capsaicin model. Subjects also completed a QST battery at two sites on the volar surface of either forearm. The QST battery included the following tests: thermal detection and pain thresholds, mechanical detection and pain thresholds, stimulus/response functions, wind-up ratio and pressure pain threshold.
For measurement of pain, a visual analogue scale (VAS) was used. The VAS consisted of a 100 mm line, with 0 representing "no pain" and 100 representing "worst pain imaginable". Subjects were asked to mark the VAS using a single vertical stroke at the point they considered to appropriately reflect their level of pain from the injection of capsaicin (not general pain). A new VAS was provided for each time point and subjects were not allowed to see their previous VAS responses. The VAS was scored by measuring from the left-hand end of the scale to the point where the subject had marked the line, and the distance in mm was recorded.
Response to pain was also assessed by a numeric rating scale (NRS). For example, by using an 11-point numeric rating scale ranging from 0 ("no pain") to 10 ("worst possible pain") and asking the subject to rate their pain. A NRS scale of 0 to 100 was also used in some assesments.
The thermal tests were performed using a thermode probe (Medoc). Cold and warm detection thresholds were measured first, then cold pain and heat pain thresholds were determined. The mean threshold temperature of 3 consecutive measurements was calculated. All thresholds were obtained with ramped stimuli (1°C/sec) that were terminated when the subject pressed a button. For thermal detection thresholds the ramp back to baseline was 1°C/sec, while for thermal pain thresholds this ramp was chosen at maximum device capacity resulting in approximately a nominal 5°C/sec.
The mechanical detection threshold was measured with a standardised set of modified von Frey nylons that exerted forces upon bending between 0.25 and 512 mN graded by a factor of 2 (1 to 2 seconds contact time). […]

[4] = Phase I ascending single oral dose study: safety and tolerability; format: in vivo, human
Experimental: Study design. The study was a Phase I, randomised, double-blind, placebo-controlled, ascending single oral dose, safety, tolerability, pharmacokinetic (PK) and pharmacodynamics (PD) study of IP2015 in healthy male subjects.
Each subject received one oral dose of IP2015 or matched placebo. […] The dose level was to be escalated to a maximum of 0.05 mg in Cohort 2 and a maximum of 0.2 mg in Cohort 3. The doses in the remaining five cohorts were to be determined based on the dose escalation criteria.
The randomisation schemes were generated by a statistician using SAS PROC Plan.
The doses used in each cohort were as follows: • Cohort 1 - 0.01 mg • Cohort 2 - 0.05 mg • Cohort 3 - 0.2 mg • Cohort 4 - 0.6 mg • Cohort 5 - 1.8 mg • Cohort 6 - 5.4 mg • Cohort 7 - 16.2 mg • Cohort 8 - 10 mg
Evaluation. The study evaluated the clinical safety data from adverse event (AE) reporting, 12-lead electrocardiogram (ECG), cardiac telemetry, vital signs (standing and supine blood pressure (BP), heart rate (HR), oral temperature and clinical laboratory evaluations (chemistry, haematology, urinalysis) and physical examinations in healthy male subjects.

T1 sequence (P31645 whole entry): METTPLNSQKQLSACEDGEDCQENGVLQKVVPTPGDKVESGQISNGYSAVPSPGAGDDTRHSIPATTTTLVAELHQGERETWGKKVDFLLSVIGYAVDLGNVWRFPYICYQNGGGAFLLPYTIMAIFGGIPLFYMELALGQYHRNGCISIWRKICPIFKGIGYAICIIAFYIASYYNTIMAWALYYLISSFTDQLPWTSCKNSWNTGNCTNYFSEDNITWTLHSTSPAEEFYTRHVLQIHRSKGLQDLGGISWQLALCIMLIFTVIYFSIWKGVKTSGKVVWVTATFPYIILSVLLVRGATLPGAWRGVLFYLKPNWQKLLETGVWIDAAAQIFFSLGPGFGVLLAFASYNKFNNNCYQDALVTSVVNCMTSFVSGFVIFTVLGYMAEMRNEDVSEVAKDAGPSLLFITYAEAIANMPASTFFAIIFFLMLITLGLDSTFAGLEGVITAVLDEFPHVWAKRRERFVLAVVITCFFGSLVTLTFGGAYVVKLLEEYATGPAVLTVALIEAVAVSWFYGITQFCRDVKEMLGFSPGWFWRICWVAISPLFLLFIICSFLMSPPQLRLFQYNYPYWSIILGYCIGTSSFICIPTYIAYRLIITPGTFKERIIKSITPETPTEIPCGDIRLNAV

COc1cc2ccc(O[C@@H]3C[C@H]4CC[C@@H](C3)N4)cc2oc1=O [IP2015, exo-7-[(8-azabicyclo[3.2.1]octan-3-yl)oxy]-3-methoxy-chromen-2-one]
IC50 [1]: 0.297 nM
IC50 [2]: 1.44 nM
area of brush-evoked allodynia compared to placebo ([3]; 5 mg IP2015, 120 min after capsaicin injection, P=0.049): significantly lowered
Pain Score of Brush-evoked Allodynia Using an NRS, Adjusted Mean (MMRM) ([3]; 5 mg IP2015): 1.8
Subjective Rating of Pain, Adjusted Mean (MMRM) ([3]; 5 mg IP2015 single oral dose): 15.6 mm
adjusted mean pain score of hyperalgesia compared to placebo ([3]; 5 mg and 10 mg IP2015, 300 mg pregabalin, all post-capsaicin injection timepoints): lower
average decrease in hyperalgesic area across all timepoints compared to placebo ([3]; 10 mg IP2015): 4 cm^2
decrease of subjective rating of pain compared to placebo ([3]; 10 mg IP2015, 15 min post capsaicin): 7.2 mm
decrease of subjective rating of pain compared to placebo ([3]; 10 mg IP2015, 30 min post capsaicin): 8.3 mm
decrease of subjective rating of pain compared to placebo ([3]; 10 mg IP2015, 60 min post capsaicin): 7.5 mm
Pain Score of Brush-evoked Allodynia Using an NRS, Adjusted Mean (MMRM) ([3]; 10 mg IP2015): 1.6
overall increase in warm detection threshold between test and control areas (QST) ([3]; 10 mg IP2015, p = 0.013, post-hoc analysis): significant
pressure pain threshold (QST) ([3]; 10 mg IP2015, post-hoc analysis): best effects
Subjective Rating of Pain, Adjusted Mean (MMRM) ([3]; 10 mg IP2015 single oral dose): 11.7 mm
thermal sensory limen warm test (QST) ([3]; IP2015 versus pregabalin, post-hoc analysis): improved effects compared to pregabalin
incidence of TEAEs ([4]; 0.01 mg to 10 mg dose range): relatively low
mean ECG parameters ([4]; 0.01 mg to 10 mg dose range): no significant treatment- or dose-related trends
vital sign values, mean or individual subject ([4]; 0.01 mg to 10 mg dose range): no significant treatment- or dose-related trends
incidence of side effects compared to the 0.01 mg to 10 mg dose range ([4]; 16.2 mg): increased
subjects with sustained tachycardia for several hours ([4]; 16.2 mg): 2 subjects
subjects reporting at least one TEAE ([4]; 16.2 mg dose group (all subjects of the group)): 4 subjects
standing pulse rate ([4]; 16.2 mg, 2, 3, 4, 6, 8, 10 and 12 hours postdose): increases from baseline
supine pulse rate ([4]; 16.2 mg, 6, 8 and 10 hours postdose): increases from baseline
heart rate (ECG) ([4]; 16.2 mg, 8 and 12 hours postdose): increases from baseline
subjects experiencing TEAEs ([4]; of the 40 subjects who received IP2015, all dose groups): 16 subjects
total TEAEs ([4]; the 40 subjects who received IP2015, all dose groups): 32 TEAEs
